Measured values taken from paper PMC11189555, “Aryl amino acetamides prevent Plasmodium falciparum ring development via targeting the lipid-transfer protein PfSTART1” (Nature Communications, 2024).
Several values for one entry are separate records, joined by “and”; a condition that tells them apart may be missing. Equal values may be shown once. Entries after “also recorded” stand apart in the source; their conditions may differ.

Legend:
[1] = test system: M-833 resistant parasite populations (PopC, PopD, PopE); test: Growth inhibition of M-833 resistant populations (LDH); assay type: cell-based, Plasmodium falciparum
Method: After three cycles of drug treatment, three parasite populations were identified as less susceptible to the compound and their growth in serially diluted M-833 after 72 h was measured by lactate dehydrogenase (LDH) activity assays. […] The two most resistant populations (PopD and PopE) were further cloned out by limiting dilution. […] To identify the target of M-833, genomic DNA was extracted from the clonal lines of PopD and PopE and subjected to whole genome sequencing using MinION technology and compared to clonal 3D7 parental parasites. This identified 14 non-synonymous single nucleotide polymorphisms (SNP) across nine different genes when compared to the 3D7 parental strain (Supplementary Data 1). The two genes that had SNPs present across all resistant clones were the P. falciparum liver stage antigen 1 gene (PF3D7_1036400) and P. falciparum stAR-related lipid transfer protein (PF3D7_0104200, PFA0210c; pfstart1). The former is not expressed in the blood stage[19]–[21] and comprises a large central repeat region which is problematic for variant calling. […] Collectively, all the identified mutations (N309K, I224F, N330K) were found within the central conserved START domain and predicted to face the lipid-binding pocket (Fig. 1C).
The drug was then removed, and parasites were allowed to recover. Another cycle of drug treatment (3 μM M-833) was then resumed. The resistant lines were cloned out by limiting dilution (diluting the culture into a 96-well plate to achieve an average of ~0.3 parasites per well), prior to growth inhibition assays and genomic DNA (gDNA) extraction (DNeasy Blood and Tissue kit (Qiagen)[18].
Parasite growth assays with inhibitory compounds were performed as per[11] and are fully described in the Supplementary Information. […]
and compound 4. Note that M-833 was first purchased from MolPort (MolPort -002-267-916) then made in-house at WEHI: the differences observed in EC50s across experiments are attributed to the different batches of M -833. For some experiments, 0, 0.25 or 2.5 mM of glucosamine (GlcN) was also added. Experiments were set up in technical duplicates or triplicates. Following a freeze -thaw cycle, lactate dehydrogenase (LDH) activity was assessed as an indicator of parasite growt h 5. 30 μL of parasite culture was incubated for 30 min in the dark with 75 μL Malstat mixture (0.1 M Tris pH 9.0, 20 g/L lactic acid, pH 7.5, 0.2% Triton-X100, 0.5 g/L acetylpyridine adenine dinucleotide (APAD, Sigma), 200 μg/mL nitroblue tetrazolium (NBT; Sigma), 1 μg/mL phenozine ethosulfate (PES; Sigma)). Absorbance was then measured at 650 nm, transformed using the formula below, plotted against the logarithm of the concentrations, and a non-linear regression (log(inhibitor) vs. response, variable slope) was calculated using GraphPad Prism to assess the half-inhibitory […]
Growth inhibition % = (1 − average(sample)− average(uRBC)) ∗ 100 […]
The DMSO samples were also used to assess growth of parasite in the presence of 0.25 and 2.5 mM GlcN (normalised by DMSO in 0 mM GlcN). […]

[2] = test system: P. berghei sporozoites invading HC-04 human liver cells; test: In vitro liver invasion assay; assay type: cell-based, Plasmodium berghei
Method: P. berghei ANKA constitutively expressing mCherry[82] was used for the in vitro liver stage invasion assay. Animals used for the generation of the sporozoites were 4- to 5-week-old male Swiss Webster mice and were purchased from the Monash Animal Services (Melbourne, Victoria, Australia) and housed at 22 to 25 °C on a 12 h light/dark cycle with 40-70% humidity at the School of Biosciences, The University of Melbourne, Australia. All animal experiments were in accordance with the Prevention of Cruelty to Animals Act 1986, the Prevention of Cruelty to Animals Regulations 2008, and National Health and Medical Research Council (2013) Australian code for the care and use of animals for scientific purposes. These experiments were reviewed and permitted by the Melbourne University Animal Ethics Committee (2015123).
Infections of naïve Swiss mice were carried out by intraperitoneal (IP) inoculation obtained from a donor mouse between the first and fourth passages from cryopreserved stock. Parasitemia was monitored by Giemsa smear and exflagellation quantified 3 days post-infection. A. stephensi mosquitoes were allowed to feed on anaesthetised mice once the exflagellation rate was assessed between about 12 to 15 exflagellation events per 1 × 10^4 RBCs. Salivary glands of infected mosquitoes (days 17 to 24 post-infection) were isolated by dissection and parasites placed into RPMI-1640 media.
This was performed essentially as described[83] with the minor variations outlined in the Supplementary Information. […]
In vitro liver invasion assays. This was performed essentially as described16 with the following variations. In vitro human liver HCO4 cells (ATCC) were seeded at 1 × 10^5 cells/mL, grown for 24 h and then infected for 2 h with 30,000 Pb ANKA mCherry […]
expressing sporozoites. Following fixation, an IFA with anti -CSP antibody (1:500) followed by anti-mouse Alexafluor 488 (1:1 ,000; Invitrogen, Carlsbad, CA, USA) labels uninvaded parasites. Fluorescence signal was assessed using an Olympus CKX41 epifluorescence microscope. […]
Gametogenesis was then triggered by the addition of 10 μL ookinete medium (gametocyte culture medium supplemented with 100 μM xanthurenic acid and 0.27 µg/mL Cy3-labelled anti-Pfs25 antibody) to each well at room temperature. Plates were then cooled on a metal block at 4°C for four min to ensure even cooling and then stabilised for a further 4 min at 28°C. At 20 min post-induction, male gametogenesis was recorded in each well by automated brightfield microscopy using a x4 objective lens and 1.5x magnifier (x6 effective magnification). Afterward, plates were incubated in the dark at room temperature for 24 h and then female gametogenesis recorded in each well by automated fluorescence microscopy (anti-Pfs25-positive cells). All experiments were performed in quadruplicate with DMSO and cabamiquine (DDD107498)17 as negative and positive controls respectively. All data was evaluated in comparison to the positive and negative controls to calculate percentage inhibition of male and female gametocytes, and dose response analysis and IC50 calculation performed using GraphPad Prism. […]
The pellet was subjected to five

SMILES: Cc1cc(Cl)c(S(=O)(=O)N2CCCC2)cc1OCC(=O)NC1CCCCC1 [M-833]
- Growth (Abs) Normalised to DMSO ([1]; Population C, M-833 0.0390625 uM): 99.9117
- Growth (Abs) Normalised to DMSO ([1]; Population C, M-833 0.078125 uM): 102.105
- Growth (Abs) Normalised to DMSO ([1]; Population C, M-833 0.15625 uM): 99.9558
- Growth (Abs) Normalised to DMSO ([1]; Population C, M-833 0.3125 uM): 98.7636
- Growth (Abs) Normalised to DMSO ([1]; Population C, M-833 0.625 uM): 92.6626
- Growth (Abs) Normalised to DMSO ([1]; Population C, M-833 1.25 uM): 74.9632
- Growth (Abs) Normalised to DMSO ([1]; Population C, M-833 2.5 uM): 42.7878
- Growth (Abs) Normalised to DMSO ([1]; Population C, M-833 5 uM): 8.5443
- Growth (Abs) Normalised to DMSO ([1]; Population C, M-833 10 uM): 1.435
- Growth (Abs) Normalised to DMSO ([1]; Population D, M-833 0.0390625 uM): 100.282
- Growth (Abs) Normalised to DMSO ([1]; Population D, M-833 0.078125 uM): 101.574
- Growth (Abs) Normalised to DMSO ([1]; Population D, M-833 0.15625 uM): 100.622
- Growth (Abs) Normalised to DMSO ([1]; Population D, M-833 0.3125 uM): 100.758
- Growth (Abs) Normalised to DMSO ([1]; Population D, M-833 0.625 uM): 96.1318
- Growth (Abs) Normalised to DMSO ([1]; Population D, M-833 1.25 uM): 94.9752
- Growth (Abs) Normalised to DMSO ([1]; Population D, M-833 2.5 uM): 84.3814
- Growth (Abs) Normalised to DMSO ([1]; Population D, M-833 5 uM): 63.806
- Growth (Abs) Normalised to DMSO ([1]; Population D, M-833 10 uM): 31.8884
- Growth (Abs) Normalised to DMSO ([1]; Population E, M-833 0.0390625 uM): 101.958
- Growth (Abs) Normalised to DMSO ([1]; Population E, M-833 0.078125 uM): 104.075
- Growth (Abs) Normalised to DMSO ([1]; Population E, M-833 0.15625 uM): 104.451
- Growth (Abs) Normalised to DMSO ([1]; Population E, M-833 0.3125 uM): 103.313
- Growth (Abs) Normalised to DMSO ([1]; Population E, M-833 0.625 uM): 104.846
- Growth (Abs) Normalised to DMSO ([1]; Population E, M-833 1.25 uM): 106.755
- Growth (Abs) Normalised to DMSO ([1]; Population E, M-833 2.5 uM): 98.4077
- Growth (Abs) Normalised to DMSO ([1]; Population E, M-833 5 uM): 90.3966
- Growth (Abs) Normalised to DMSO ([1]; Population E, M-833 10 uM): 68.0744
- increase in EC50 compared to 3D7 parasites ([1]; cloned PopD and PopE lines, Fig 1B): 17 fold

SMILES: CC(C)(Nc1ccc(Cl)c(S(=O)(=O)N2CCOCC2)c1)C(=O)Nc1ccc(F)c(Cl)c1 [W-991]
- P. berghei sporozoite invasion ([2]; 2 h incubation with HC-04 cells, p > 0.05): showed no defect in invasion; also recorded: had no impact
- Liver stage invasion assay: in ([2]; count of sporozoites inside cells, Replicate 1 and 2): 58 and 121
- Liver stage invasion assay: out ([2]; count of sporozoites outside cells, Replicate 1 and 2): 92 and 153
- Liver stage invasion assay: ratio ([2]; in relative to in + out, Replicate 1 and 2): 38.6667 and 44.1606

SMILES: O=C(CNc1ccc(Cl)c(S(=O)(=O)N2CCOCC2)c1)Nc1ccc(F)c(Cl)c1 [compound 2, reference compound]
- activity against M-833-resistant populations ([1]; Fig 4B): cross-resistant
